# Measured values as given in publication PMC11627468, “Novel enzyme‐resistant pancreatic polypeptide analogs evoke pancreatic beta‐cell rest, enhance islet cell turnover, and inhibit food intake in mice” (Biofactors (Oxford, England), 2024).
# Starred links: 1 amine or outer side, 2 acyl side, 3 side chain; linkers in the order of their positions; H or OH if unused. Residues, ends and D or L forms follow the SMILES beside them. Groups on a side chain read outwards from the residue. No end group written: not given here. *: point of attachment. γGlu = O=C(O)[C@H](CCC(=O)[*:2])N[*:1]; Palmitoyl = CCCCCCCCCCCCCCCC(=O)*
# Legend:
# [1] = system: BRIN‐BD11 beta‐cells; assay: Beta‐cell proliferation (Ki‐67 staining); type: cell-based; conditions: versus control cultures, n = 3
# Experimental: (§1) To assess the effects of PP and related peptides (10^−8 and 10^−6 M) on beta‐cell proliferation and apoptosis, BRIN‐BD11 beta‐cells were seeded onto sterilized, clear‐glass coverslips (16 mm diameter) and placed in 12‐well plates (Falcon Ltd) at a density of 40,000 cells per well and cultured for 18 h. Media control (11.1 mM glucose), GLP‐1 (10^−8 and 10^−6 M), and a cytokine cocktail mix (IL‐1β [100 U/mL], IFNγ [20 U/mL], TNFα [200 U/mL], Sigma Aldrich, UK) were employed as controls, as appropriate. Cells were then rinsed with PBS and fixed using 4% paraformaldehyde. After antigen retrieval with sodium citrate buffer at 95°C for 20 min, blocking was performed using 2% bovine serum albumin (BSA) for 45 min. For proliferation studies, the slips were then incubated at 37°C with rabbit anti‐Ki‐67 primary antibody (Abcam, ab15580), and subsequently with Alexa Fluor® 488 secondary antibody. Coverslips were mounted onto polylysine‐coated microscope slides using a 50:50 glycerol:PBS solution and stored at 4°C until required for analysis. To assess the ability of PP peptides to protect against cytokine‐induced apoptosis, cells were seeded, washed, and fixed as above, with the exception that the media was supplemented with the cytokine mix. The slips were then incubated at 37°C with TUNEL reaction mix for 60 min (Roche Diagnostics, Germany), and mounted onto microscope slides. To assess receptor specificity, co‐incubation of PP peptides with the well characterized NPY4R antagonist, (S)‐VU0637120,[24] at 10^−5 M was employed for beta‐cell proliferation experiments, conducted as detailed above. All slides were viewed using a fluorescent microscope (Olympus System Microscope, model BX51; Southend‐on‐Sea, UK) and photographed by DP70 camera adapter system. Proliferation/TUNEL positive frequency was determined using the cell‐counter function on ImageJ Software and expressed as % of total cells analyzed.
# [2] = system: C57BL/6 mice; assay: Acute food intake in overnight fasted mice; type: in vivo
# Experimental: (§2) Acute in vivo studies were conducted in groups (n = 6) of 4‐month‐old male C57BL/6 mice (Envigo, Huntington, UK). All mice were maintained on standard rodent chow (10% fat, 30% protein, and 60% carbohydrate; Trouw Nutrition, Northwich, UK), and drinking water provided ad libitum. Mice were housed individually and kept in a temperature‐controlled environment (22 ± 2°C), with a 12‐h light/dark cycle. Experiments were carried out in accordance with the UK Animal Scientific Procedures Act 1986 as well as being approved by Ulster University Animal Ethics Review Committee (AWERB) committee and protected by the UK Home Office Animal project license number PPL2902, approved on April 26, 2021. Acute effects of test peptides on food intake were tested in overnight (16 h) fasted mice. Briefly, fasted mice were administered an intraperitoneal (i.p.) injection of saline vehicle (0.9% (w/v) NaCl) alone or in combination with test peptides (each at 25, 75, or 200 nmol/kg bw) and cumulative food intake measured at regular intervals, to assess the pharmacodynamic profile of the test peptides. For food intake studies, mice were provided with preweighed rodent maintenance diet in their food hopper at t = 0 min, which was then re‐weighed at each timepoint with all due care taken to account for any wastage or crumbling of the food pellets. In this regard, the investigator was present at all times during the 180‐min test period to ensure accuracy and consistency in all measurements. Furthermore, effects of PP or related peptides (25 nmol/kg bw) on glucose homeostasis and insulin secretion were evaluated in overnight fasted mice following i.p. injection of glucose alone (18 mmol/kg bw) or in combination with PP peptides (each at 25 nmol/kg bw).
# [3] = system: T1, DPP-4; assay: In vitro DPP‐4 degradation; type: in vitro ADME, human; conditions: purified human DPP-4 enzyme; peptide 50 μg with purified human DPP‐4 (5 μL, 0.01 U/L), 37°C, 8 h; stopped with 10% (v/v) trifluoroacetic acid; rp‐HPLC C‐18, UV 214 nm; peaks by MALDI‐MS; read-out: % intact peptide after 8 h DPP‐4 incubation
# T1 construct: purchased Sigma-Aldrich
# Experimental: PP peptides (50 μg) were incubated at 37°C for 0–8 h with 5 μL of purified human DPP‐4 enzyme (0.01 U/L, Sigma‐Aldrich, Gillingham, UK). Degradation reactions were terminated via the addition of 10 μL 10% (v/v) trifluoroacetic acid/water solution. Reaction mixes were separated by reverse phase rp‐HPLC using a Phenomenex C‐18 analytical column (250 × 4.6 mm^2) with UV absorbance detection at 214 nm (ThermoQuest SpectraSystem UV2000 detector). HPLC peaks of interest were collected and analyzed by MALDI‐TOF MS on a Perseptive Biosystems Voyager‐DE Biospectrometry (Hertfordshire, UK).
# [4] = system: C57BL/6 mice; assay: Glucose‐stimulated plasma insulin in mice; type: in vivo; conditions: n = 6; for glucose‐induced insulin secretion (plasma insulin): peptide 25 nmol/kg with glucose 18 mmol/kg i.p., versus glucose control
# Experimental: as §2, with “bw). […] Blood glucose was measured immediately using a hand‐held Ascencia Contour blood glucose meter (Bayer Healthcare, Newbury, Berkshire, UK). For plasma insulin, blood was collected in chilled fluoride/heparin‐coated microcentrifuge tubes (Sarstedt, Numbrecht, Germany) and centrifuged using a Beckman microcentrifuge (Beckman Instruments, Galway, Ireland) for 10 min at 12,000 rpm. Plasma was separated and stored at −20°C, until determination of plasma insulin by radioimmunoassay.[23]” for “bw).”
# [5] = system: C57BL/6 mice; assay: Glucose tolerance in mice; type: in vivo; conditions: exendin‐4 0.25 nmol/kg or CCK‐8 25 nmol/kg with glucose 18 mmol/kg i.p., versus glucose control; n = 6
# Experimental: as §2, with “bw). […] Blood glucose was measured immediately using a hand‐held Ascencia Contour blood glucose meter (Bayer Healthcare, Newbury, Berkshire, UK). […]” for “bw).”
# [6] = system: BRIN‐BD11 beta‐cells; assay: Protection against cytokine‐induced beta‐cell apoptosis (TUNEL); type: cell-based; conditions: peptides 10^−8 and 10^−6 M, cytokine cocktail IL‐1β 100 U/mL, IFNγ 20 U/mL, TNFα 200 U/mL, n = 3
# Experimental: as §1, with “The slips were then incubated at 37°C with TUNEL reaction mix for 60 min (Roche Diagnostics, Germany), and mounted onto microscope slides. To assess receptor specificity, co‐incubation of PP peptides with the well characterized NPY4R antagonist, (S)‐VU0637120,[24] at 10^−5 M was employed for beta‐cell proliferation experiments, conducted as detailed above. All slides were viewed using a fluorescent microscope (Olympus System Microscope, model BX51; Southend‐on‐Sea, UK) and photographed by DP70 camera adapter system.” left out
compound,measurement,setting,value
CCCCCCCCCCCCCCCC(=O)N[C@@H](CCC(=O)NCCCC[C@H](NC(=O)[C@H](C)NC(=O)[C@H](CC(N)=O)NC(=O)[C@H](CC(=O)O)NC(=O)CNC(=O)[C@@H]1CCCN1C(=O)[C@H](Cc1ccc(O)cc1)NC(=O)[C@@H](NC(=O)[C@@H]1CCCN1C(=O)[C@H](CCC(=O)O)NC(=O)[C@H](CC(C)C)NC(=O)[C@@H]1CCCN1C(=O)[C@H](C)N)C(C)C)C(=O)N1CCC[C@H]1C(=O)N[C@@H](CCC(=O)O)C(=O)N[C@@H](CCC(N)=O)C(=O)N[C@@H](CCSC)C(=O)N[C@@H](C)C(=O)N[C@@H](CCC(N)=O)C(=O)N[C@@H](Cc1ccc(O)cc1)C(=O)N[C@@H](C)C(=O)N[C@@H](C)C(=O)N[C@@H](CC(=O)O)C(=O)N[C@@H](CC(C)C)C(=O)N[C@@H](CCCNC(=N)N)C(=O)N[C@@H](CCCNC(=N)N)C(=O)N[C@@H](Cc1ccc(O)cc1)C(=O)N[C@H](C(=O)N[C@@H](CC(N)=O)C(=O)N[C@@H](CCSC)C(=O)N[C@@H](CC(C)C)C(=O)N[C@H](C(=O)N[C@@H](CCCNC(=N)N)C(=O)N1CCC[C@H]1C(=O)N[C@@H](CCCNC(=N)N)C(=O)N[C@@H](Cc1ccc(O)cc1)C(N)=O)[C@@H](C)O)[C@@H](C)CC)C(=O)O [[K^13Pal]PP] (H-APLEPVYPGDNAK([γGlu-Palmitoyl])PEQMAQYAADLRRYINMLTRPRY-NH2; N-terminus assumed),BRIN‐BD11 cell proliferation,[1]; peptide 10^−8 M,augmented
same,food intake in combination with exendin‐4,"[2]; PP peptide 25 nmol/kg with exendin‐4 0.25 nmol/kg i.p., fasted mice, n = 6",additive appetite suppressive actions
same,"food intake in overnight fasted mice, summary in discussion","[2]; i.p., overnight fasted mice",retained impressive effects to restrict food intake
CC[C@H](C)[C@H](NC(=O)[C@H](Cc1ccc(O)cc1)NC(=O)[C@H](CCCNC(=N)N)NC(=O)[C@H](CCCNC(=N)N)NC(=O)[C@H](CC(C)C)NC(=O)[C@H](CC(=O)O)NC(=O)[C@H](C)NC(=O)[C@H](C)NC(=O)[C@H](Cc1ccc(O)cc1)NC(=O)[C@H](CCC(N)=O)NC(=O)[C@H](C)NC(=O)[C@H](CCSC)NC(=O)[C@H](CCC(N)=O)NC(=O)[C@H](CCC(=O)O)NC(=O)[C@@H]1CCCN1C(=O)[C@@H](NC(=O)[C@H](C)NC(=O)[C@H](CC(N)=O)NC(=O)[C@H](CC(=O)O)NC(=O)CNC(=O)[C@@H]1CCCN1C(=O)[C@H](Cc1ccc(O)cc1)NC(=O)[C@@H](NC(=O)[C@@H]1CCCN1C(=O)[C@H](CCC(=O)O)NC(=O)[C@@H]1CCCN1C(=O)[C@@H]1CCCN1C(=O)[C@H](C)N)C(C)C)[C@@H](C)O)C(=O)N[C@@H](CC(N)=O)C(=O)N[C@@H](CCSC)C(=O)N[C@@H](CC(C)C)C(=O)N[C@H](C(=O)N[C@@H](CCCNC(=N)N)C(=O)N1CCC[C@H]1C(=O)N[C@@H](CCCNC(=N)N)C(=O)N[C@@H](Cc1ccc(O)cc1)C(N)=O)[C@@H](C)O [[P^3]PP],remaining at 8 h,[3],> 99%
"(N‐Pal)APLEPVYPGDNATPEQMAQYAADLRRYINMLTRPR‐NH2 [[N‐Pal]PP, PP analog with C‐16 palmitate via γ‐glutamyl spacer at the N‐terminal amino group]",cumulative food intake (appetite suppression),"[2]; 200 nmol/kg i.p., overnight fasted mice, later observation points, versus saline, n = 6",mild inhibitory (p < 0.05) effect
same,glucose‐induced insulin secretion (plasma insulin),[4],slightly decreasing (p = <0.05 to 0.01)
"(N‐Pal)APPEPVYPGDNATPEQMAQYAADLRRYINMLTRPR‐NH2 [[N‐Pal,P^3]PP, PP analog with Pro^3 and N‐terminal C‐16 palmitate via γ‐glutamyl spacer]",cumulative food intake (appetite suppression),"[2]; all doses employed (25, 75, 200 nmol/kg i.p.), overnight fasted mice, n = 6",lacked bioactivity
same,glucose‐induced insulin secretion (plasma insulin),[4],slightly decreasing (p = <0.05 to 0.01)
"CCK‐8: used for cholecystokinin (CCK) receptor activation in combination studies (DYMGWMDF; ends and bridges not checked; UniProt P06307 96-103, looked up)","food intake (appetite suppression), CCK‐8 alone","[2]; CCK‐8 25 nmol/kg i.p., early observation points, versus saline, n = 6",impressive effects on appetite suppression (p < 0.001)
same,"glucose disposal, exendin‐4 or CCK‐8",[5],benefits
same,"insulinotropic action, exendin‐4 or CCK‐8",[4]; exendin‐4 0.25 nmol/kg or CCK‐8 25 nmol/kg with glucose 18 mmol/kg i.p.,significant insulinotropic actions
"glucagon‐like peptide‐1 (HAEGTFTSDVSSYLEGQAAKEFIAWLVKGR; ends and bridges not checked; UniProt P01275 98-127, looked up) [GLP‐1, positive control in proliferation and apoptosis tests]",BRIN‐BD11 cell proliferation,[1]; peptide 10^−6 M,significantly (p < 0.001) enhanced
same,BRIN‐BD11 cell proliferation,[1]; peptide 10^−8 M,significantly (p < 0.001) enhanced
same,protection against cytokine‐induced beta‐cell apoptosis,[6],significantly (p = <0.01 to 0.001) protected against cell death
